# Patent publication US8852628B1, “Transdermal drug delivery system for diclofenac” (Noven Pharmaceuticals, Inc., priority 2009, dated 2014)
# Test: in-vitro permeation study utilizing modified Franz cells (flux)
# Format: in vitro ADME, human
# Conditions: diclofenac sodium, acid and potassium as single entities in formulations similar to the examples; particularly with oleic acid and dipropylene glycol
# Protocol: The flux data was collected from an in-vitro permeation study utilizing modified Franz cells with stratum corneum obtained from human cadaver skin by the heat separation technique. The receiver solution for this study was 0.9% NaCl with 0.01% NaN3 in deionized water. Franz cells were maintained at about 32° C. for the duration of this study. Flux samples were analyzed by HPLC.
smiles,measurement,value
O=C(O)Cc1ccccc1Nc1c(Cl)cccc1Cl [diclofenac potassium],"flux rate, drug forms fluxed as single entities",highest rate
